In publication PMC12645191, “Dicarboxylate and dicarboxylic acid appended supramolecular self-associating amphiphiles as antimicrobial agents against high priority bacterial pathogens” (Organic & Biomolecular Chemistry, 2025):
Values joined by “and” are separate entries in the source; they are usually repeats but may differ in a detail not shown here. Identical values can stand only once. Marks after values point to notes of the source that are not given here.

Experiments:
[1] = protein binding in human plasma by equilibrium dialysis; assay type: in vitro ADME
Procedure: Metabolic stability was assessed in mouse and rat liver microsomes. […] A plasma protein binding assay was performed to assess the extent of compound binding to plasma proteins. This is key as only unbound compound is free to distribute and exert a pharmacological effect. […] To assess the potential for this sub-class of SSAs to be developed as drugs for oral administration, Caco-2 permeability assays were also performed, as a cellular model indicative of human intestinal permeability. […] The […] MS/MS analysis. Samples were analysed using a Shimadzu liquid chromatography system coupled to a Triple Quad 6500+ mass spectrometry (AB Inc.) Separation of compounds was achieved using an HSS T3 column (50 x 2.1 mm) at a temperature of 40 °C and a binary mobile phase gradient at a flow rate of 0.7 mL/min. […] This was ramped to 95 % solvent B at 0.7 minutes, held for 0.5 minutes and then […] returned to initial conditions. Sample analysis was by electrospray ionisation. Protein Binding Measurements in Human Plasma by Using Equilibrium Dialysis Method : The fraction unbound in human plasma (P -KB, Ltd People's hospital of Shandong) were measured using 96-well Equilibrium Dialysis Plate (HTDialysis LLC, Gales Ferry, CT). Human plasma containing 5 μM test compound were dialysed against dialysis buffer (PBS) with initial samples taken to allow for assessment of plasma stability and recovery before the plate was incubated for 6 hours at 37 °C at 5 % CO2. Samples were removed at 6 hours, and all samples […] appropriate analytical internal standard. Samples were centrifuged at 3,220 g for 30 minutes (Eppendorf 5810R) to precipitate protein and enable sampling of supernatant prior to appropriate dilution for liquid chromatography mass -spectrometry (LC-MS/MS) analysis. Samples were analysed using a Shimadzu coupled to a triple Quad 6500 + (AB Inc., Illinois). Separation of analytes was achieved using a Xselect Hss T3 (2.1 x 50 mm) column at a temperature of 40 °C and a binary mobile phase gra dient at a flow rate of 0.8 mL/min. Initial […] formic acid in acetonitrile); this was ramped to 98 % B at 0.5 min, held for 0.4 min and then immediately returned to initial conditions. Sample analysis was by electrospray ionisation in positive ion mode. Bi-directional Permeability in Caco-2 Cell Line: The bi-directional permeability in Caco-2 cell lines was determined by seeding cells onto an HTS Transwell plate. Cells were cultivated for 14-18 days in a cell culture incubator at 37 °C, 5 % CO2, 95 % relative humidity. Cell culture medium was replaced every other day. To assess monolayer integrity the transepithelial electrical resistance (TEER) across the monolayer was measured using Millicell Epithelial volt-ohm meter prior to assay and Lucifer yellow (LY) fluorescence measurement post-assay. Test and control compounds were prepared in DMSO and diluted in Hank's Balanced Saline […] Compound was added to the donor compartment of the transwell plate for both apical to basolateral (A>B) and basolateral to apical (B>A) measurements, with blank HBSS being added to the receiver compartment. The transwell plate was then incubated at 37 °C, 5 % CO2 for 2 hours. 5

[2] = quantitative (Q) 1H NMR spectroscopy, proportion of SSA becoming NMR silent (higher-order aggregates); assay type: physicochemical
Procedure: To confirm the presence of higher order self-associative structures quantitative (Q) ^1H NMR spectroscopy studies were undertaken at 5.6 mM in D2O 5% EtOH. Here the ^1H NMR resonances attributed to the EtOH are used as an internal standard.
Table S1 – Overview of results of the quantitative (Q) 1H NMR studies for 1, 3, 5, 7 and 9
5.0 % EtOH . Values given in % represent the observed proportion of the SSA that has become
Table S2 – Overview of results of the quantitative (Q) 1H NMR studies for 2, 4, 6, 8 and 10
5.0 % EtOH. Values given in % represent the observed proportion of anion and cation that has

[3] = tensiometry: critical aggregate concentration (CAC) and surface tension; assay type: physicochemical
Procedure: As the (Q) ^1H NMR spectroscopy experiments conducted at 5.6 mM in a D2O 5.0% EtOH solution confirmed the presence of higher-order self-associated structures with solid-like properties, concentration dependent surface tension measurements, obtained through tensiometry, were used to calculate critical aggregate concentration (CAC). Here the CAC is defined as the point at which an increase in SSA concentration no longer decreases surface tension but instead results in the formation of higher-order self-associated structures.

[4] = dynamic light scattering (DLS) of SSA aggregates; assay type: physicochemical; conditions: 5.6 mM, H2O 5.0% EtOH, 298 K; listed as 6
Procedure: Dynamic light scattering (DLS) and zeta potential measurements in H2O 5.0% EtOH were used to determine the hydrodynamic diameter (dH) and stability of the higher-order SSA aggregates detected by (Q) ^1H NMR spectroscopy at 5.6 mM, Table 1. […] However, we are unable to confidently report a dH for 1 due to the instability of this system, which is supported by a zeta potential value of −26 mV, obtained for this SSA under the same experimental conditions. […] Due to the instability of these systems in the absence of solvent, attempts to further characterise these systems through SEM or AFM are not possible.[48]

[5] = system: P. aeruginosa PAO1; test: inhibition of bacterial growth, OD600 after 20 h; assay type: cell-based, Pseudomonas aeruginosa; conditions: SSA 5.0 mM, 2.5% ethanol, negative = enhanced growth, listed as 6
Procedure: (§1) With the self-associative properties of 1–10 established, the antimicrobial activity of these SSAs were determined against a panel of clinically relevant, high-priority pathogens including: P. aeruginosa PAO1; Klebsiella pneumonia (K. pneumoniae) M6; E. coli NCTC 12923; Acinetobacter baumannii (A. baumannii) ATCC 17978; S. aureus ATCC 9144; Enterococcus faecalis (E. faecalis) NCTC 775; and Enterococcus faecium (E. faecium) NCTC 12204. […] However, it should be noted that the SSA stock solution was prepared in a H2O 5% EtOH solution, to ensure that the SSA aggregates formed were in line with those characterised within the scope of the SSA self-association studies.
(§2) Section 3: Biological methods
(§3) These methods were taken directly from UK Health and Security Office (UKHSA) standard […]
(§4) Preparation of Luria Broth media (LB): Yeast extract (5.0 g), tryptone (10.0 g) and sodium chloride (10.0 g) were dissolved in dH₂O (1.0 L) then divided into bottles and autoclaved.
(§5) Preparation of Luria Broth (LB) agar plates: Agar (6.0 g) was added to LB (400 mL) and autoclaved. Once cool, the LB agar was poured into sterile petri dishes under sterile conditions and allowed to set. LB plates were stored at 4 °C until use.
(§6) Preparation of bacterial plates: Sterile LB agar plates were streaked using streaked using the desired bacteria i) Pseudomonas aeruginosa (P.aeruginosa) PAO1, ii) Klebsiella pneumoniae (K. pneumoniae) M6 iii) E. coli NCTC 12923 and iv) Acinetobacter baumannii (A. baumannii) ATCC 17978 and Gram-positive i) Staphylococcus aureus (S. aureus) ATCC 9144 ii) Enterococcus faecalis (E. faecalis) NCTC 775 and iii) Enterococcus faecium (E. faecium ) NCTC 12204, then incubated at 37 °C overnight.
(§7) Preparation of Inoculum: An initial culture was made up by inoculating LB media (5 mL) with a single colony of bacteria under sterile conditions and incubated at 37 °C with shaking overnight. The following day, overnight bacterial cultures were subcultured into fresh LB medium to a starting OD600 of 0.01.
(§8) Preparation of 96 well microplate for MIC50: The 1:100 cell suspension (150 µL) was dispensed into individual wells under sterile conditions. SSAs (30 µL) were added to the wells to equal a total volume of 180 µL in the wells. Six repeats of each concentration for each SSA were created each plate. The plates were sealed using parafilm, then incubated at 37 °C in a microplate reader for 20 hours. OD600 endpoint data was used to generate growth curves. […]

[6] = system: K. pneumoniae M6; test: inhibition of bacterial growth, OD600 after 20 h; assay type: cell-based, Klebsiella pneumoniae; conditions: SSA 5.0 mM, 2.5% ethanol, negative = enhanced growth, listed as 6
Procedure: as §1, §2, §3, §4, §5, §6, §7, §8

[7] = system: E. coli NCTC 12923; test: inhibition of bacterial growth, OD600 after 20 h; assay type: cell-based, Escherichia coli; conditions: SSA 5.0 mM, 2.5% ethanol, negative = enhanced growth, listed as 6
Procedure: as §1, §2, §3, §4, §5, §6, §7, §8

[8] = system: A. baumannii ATCC 17978; test: inhibition of bacterial growth, OD600 after 20 h; assay type: cell-based, Acinetobacter baumannii; conditions: SSA 5.0 mM, 2.5% ethanol, negative = enhanced growth, listed as 6
Procedure: as §1, §2, §3, §4, §5, §6, §7, §8

[9] = system: S. aureus ATCC 9144; test: inhibition of bacterial growth, OD600 after 20 h; assay type: cell-based, Staphylococcus aureus; conditions: SSA 5.0 mM, 2.5% ethanol, negative = enhanced growth, listed as 6
Procedure: as §1, §2, §3, §4, §5, §6, §7, §8

[10] = system: E. faecalis NCTC 775; test: inhibition of bacterial growth, OD600 after 20 h; assay type: cell-based, Enterococcus faecalis; conditions: SSA 5.0 mM, 2.5% ethanol, negative = enhanced growth, listed as 6
Procedure: as §1, §2, §3, §4, §5, §6, §7, §8

[11] = system: E. faecium NCTC 12204; test: inhibition of bacterial growth, OD600 after 20 h; assay type: cell-based, Enterococcus faecium; conditions: SSA 5.0 mM, 2.5% ethanol, negative = enhanced growth, listed as 6
Procedure: as §1, §2, §3, §4, §5, §6, §7, §8

[12] = 5.6 mM, D2O 5.0% EtOH, 298 K, listed as 6

Row | (Q) 1H NMR spectroscopy, proportion NMR silent, acid or anion [2, 12] | (Q) 1H NMR spectroscopy, proportion NMR silent, cation [2, 12] | (Q) 1H NMR, proportion NMR silent, cation ([2]; ~112 mM, DMSO-d6 1.0% DCM) | ST at the limit of solubility or 100 mM, whichever concentration is lower ([3]; H2O 5.0% EtOH, 298 K) | CAC (footnote in place of a value) ([3]; H2O 5.0% EtOH, 298 K, listed as 6) | Surface tension at CAC ([3]; H2O/5.0 % EtOH, listed as 6) | DLS Peak 2 maxima [4] | Polydispersity index (%) [4] | dH (DLS intensity distribution peak 1 maxima) [4] | Structure (SMILES) | remaining at 6 h, 5 µM ([1]; human plasma, 5 µM, 37 °C) | % Unbound ([1]; human, plasma) | fraction unbound ([1]; human, plasma) | Percentage inhibition of bacterial growth, PAO1 (P. aeruginosa) [5] | Percentage inhibition of bacterial growth, M6 (K. pneumoniae) [6] | Percentage inhibition of bacterial growth, NCTC 12923 (E. coli) [7] | Percentage inhibition of bacterial growth, ATCC 17978 (A. baumannii) [8] | Percentage inhibition of bacterial growth, ATCC 9144 (S. aureus) [9] | Percentage inhibition of bacterial growth, NCTC 775 (E. faecalis) [10] | Percentage inhibition of bacterial growth, NCTC 12204 (E. faecium) [11]
1 |  |  |  |  |  |  |  |  |  | CC(=O)N1CCN(c2ccc(OCC3COC(Cn4ccnc4)(c4ccc(Cl)cc4Cl)O3)cc2)CC1 (stereo not shown) [Ketoconazole, reference compound] | 101% | 0.86% | 0.0086 |  |  |  |  |  |  | 
2 | 42% | 41.8% and 42% | 0% | 38 ^d mN m^−1 | ^c (CAC is >100 mM) | 38.24 mN/m | 5868 nm | 21.5 (± 1.3) % | 164 nm | COc1ccc(NC(=O)N[C@@H](CCC(=O)O)C(=O)O)cc1 [SSA 6] |  |  |  | 29.42% and 29% | 22.92% and 23% | 32.77% and 33% | -28.50% and −29% | 55.64% and 56% | 7.71% and 8% | 7.44% and 7%
